ChEMBL document CHEMBL3860023, “Structural optimization of pyridine-type DAPY derivatives to exploit the tolerant regions of the NNRTI binding pocket” (Eur J Med Chem, 2016)

How the values were obtained:
[1] = Cytotoxicity against mock-infected human MT4 cells assessed as reduction in cell viability after 5 days by MTT assay; type: toxicity, cell-based
[2] = test system: Human immunodeficiency virus 1; experiment: Antiviral activity against HIV1 RES056 expressing reverse transcriptase K103N/Y181C double mutant infected in human MT4 cells assessed as protection against virus-induced cytopathic effect after 5 days by MTT assay; type: functional, cell-based; details: Human immunodeficiency virus 1, RES056, MT4, 120 h
[3] = molecular target: Human immunodeficiency virus type 1 reverse transcriptase (Human immunodeficiency virus 1, UniProt Q72547); experiment: Inhibition of recombinant wild type HIV1 p66/p51 using poly(rA) template/oligo(dT)16 primer after 40 mins by PicoGreen-based spectrofluorometric method
[4] = test system: Human immunodeficiency virus 1; experiment: Antiviral activity against HIV1 3B expressing wild type reverse transcriptase infected in human MT4 cells assessed as protection against virus-induced cytopathic effect after 5 days by MTT assay; type: functional, cell-based; details: Human immunodeficiency virus 1, 3B, MT4, 120 h
[5] = Solubility of the compound; type: physicochemical
[6] = Selectivity index, ratio of CC50 for mock-infected human MT4 cells to EC50 for HIV1 3B expressing wild type reverse transcriptase; type: toxicity, cell-based; details: read-out: Ratio CC50/EC50
[7] = Selectivity index, ratio of CC50 for mock-infected human MT4 cells to EC50 for HIV1 RES056 expressing reverse transcriptase K103N/Y181C double mutant; type: toxicity, cell-based; details: read-out: Ratio CC50/EC50

| Structure (SMILES) | CC50 at 120 h [1] [nM] | EC50 [2] [nM] | IC50 [3] [nM] | EC50 [4] [nM] | solubility [5] [µM] | selectivity ratio [6] | selectivity ratio [7] |
| --- | --- | --- | --- | --- | --- | --- | --- |
| Cc1cc(C)c(Oc2cc(Cl)nc(NC3CCN(Cc4ccc(C(N)=O)cc4)CC3)c2)c(C)c1 | 8200 | > 8200 | 98 | 35 | > 52 | 230 | < 1 |
| Nc1ccn([C@@H]2CS[C@H](CO)O2)c(=O)n1 [LAMIVUDINE] | > 87200 | – | – | 3100 | – | > 28 | – |
| Cc1cc(C#N)cc(C)c1Oc1cc(Cl)nc(NC2CCN(Cc3ccccc3)CC2)c1 | 4300 | > 4300 | 168 | 49 | > 56 | 88 | < 1 |
| Cc1ccnc2c1NC(=O)c1cccnc1N2C1CC1 [NEVIRAPINE] | > 15000 | ≥ 9800 | – | – | – | – | – |
| CC(C)Nc1cccnc1N1CCN(C(=O)c2cc3cc(NS(C)(=O)=O)ccc3[nH]2)CC1 [DELAVIRDINE] | > 36200 | > 36200 | – | – | – | > 59 | – |
| Cc1cc(C)c(Oc2cc(Cl)nc(NC3CCN(CC4CCC4)CC3)c2)c(C)c1 | 4600 | – | – | > 4600 | > 60 | < 1 | – |
| COc1cc(Oc2c(C)cc(C#N)cc2C)cc(NC2CCN(Cc3ccc(C(N)=O)cc3)CC2)n1 | 22900 | ≥ 6600 | 113 | 20 | > 257 | 1140 | ≤ 3 |
| Cc1cc(C)c(Oc2cc(Cl)nc(NC3CCN(Cc4ccccc4)CC3)c2)c(C)c1 | 9700 | > 9700 | 287 | 150 | > 287 | 63 | < 1 |
| Cc1cc(C#N)cc(C)c1Oc1cc(Cl)nc(Nc2ccc(CN3CCOCC3)cc2)c1 | 7000 | > 6900 | 1320 | 930 | > 56 | 7 | < 1 |
| Cc1cc(C#N)cc(C)c1Oc1cc(Cl)nc(NC2CCN(Cc3ccc(S(N)(=O)=O)cc3)CC2)c1 | 7000 | > 7000 | 57 | 7.4 | > 48 | 946 | < 1 |
| Cc1cc(C)c(Oc2cc(Cl)nc(Nc3ccc(C#N)cc3)c2)c(C)c1 | 10800 | > 10800 | 248 | 410 | > 14 | 26 | < 1 |
| COc1cc(Oc2c(C)cc(C#N)cc2C)cc(NC2CCN(Cc3ccc(S(C)(=O)=O)cc3)CC2)n1 | 1700 | > 1700 | 175 | 12 | > 48 | 133 | < 1 |
| Cc1cc(C)c(Oc2cc(Cl)nc(NC3CCN(Cc4ccncc4)CC3)c2)c(C)c1 | 10400 | ≥ 10500 | 82 | 42 | > 57 | 247 | ≤ 1 |
| Cc1cc(C)c(Oc2cc(Cl)nc(NC3CCN(Cc4ccc(S(C)(=O)=O)cc4)CC3)c2)c(C)c1 | 1200 | > 1100 | 160 | 25 | > 49 | 46 | < 1 |
| Cc1cc(C#N)cc(C)c1Oc1cc(Cl)nc(NC2CCN(CC3CCC3)CC2)c1 | 4200 | > 4200 | – | > 4200 | > 59 | < 1 | < 1 |
| Cc1cc(C#N)cc(C)c1Oc1cc(Cl)nc(NC2CCN(CC3CC3)CC2)c1 | 9600 | – | – | ≥ 6400 | > 304 | ≤ 2 | – |

| Structure (SMILES) | CC50 at 120 h [1] [nM] | EC50 [2] [nM] | IC50 [3] [nM] | EC50 [4] [nM] | solubility [5] [µM] | selectivity ratio [6] | selectivity ratio [7] |
| --- | --- | --- | --- | --- | --- | --- | --- |
| COc1cc(Oc2c(C)cc(C#N)cc2C)cc(NC2CCN(Cc3ccccc3)CC2)n1 | 3500 | > 3500 | 264 | 100 | > 56 | 37 | < 1 |
| Cc1cc(C)c(Oc2cc(Cl)nc(Nc3ccc(CN4CCOCC4)cc3)c2)c(C)c1 | 26000 | > 26000 | 2620 | 2400 | > 57 | 11 | < 1 |
| COc1cc(Oc2c(C)cc(C#N)cc2C)cc(NC2CCN(Cc3ccncc3)CC2)n1 | 20800 | 6200 | 81 | 13 | > 11 | 1570 | 3 |
| Cc1cc(C#N)cc(C)c1Oc1cc(Cl)nc(NC2CCN(Cc3ccncc3)CC2)c1 | 9700 | ≥ 6500 | 40 | 9.1 | > 56 | 1070 | ≤ 1 |
| Cc1cc(C)c(Oc2cc(Cl)nc(NC3CCN(Cc4ccc(S(N)(=O)=O)cc4)CC3)c2)c(C)c1 | 5400 | ≥ 9400 | 159 | 33 | > 49 | 161 | ≤ 1 |
| Cc1cc(C)c(Oc2cc(Nc3ccc(C#N)cc3)nc(OCCCN3CCOCC3)c2)c(C)c1 | 18800 | > 18800 | 4060 | 1100 | > 11 | 18 | < 1 |
| Cc1cn([C@H]2C[C@H](N=[N+]=[N-])[C@@H](CO)O2)c(=O)[nH]c1=O [ZIDOVUDINE] | > 93500 | – | – | – | – | > 13400 | > 15000 |
| COc1cc(Oc2c(C)cc(C#N)cc2C)cc(NC2CCN(CC3CC3)CC2)n1 | 8600 | – | – | ≥ 9200 | > 307 | ≤ 1 | – |
| Cc1cc(C)c(Oc2cc(Cl)nc(NC3CCN(CC4CC4)CC3)c2)c(C)c1 | 5200 | – | – | > 5200 | > 62 | < 1 | – |
| Cc1cc(C#N)cc(C)c1Oc1nc(Nc2ccc(C#N)cc2)nc(N)c1Br [ETRAVIRINE] | > 4600 | – | – | 9.5 | < 1 | – | – |
| O=C1Nc2ccc(Cl)cc2[C@@](C#CC2CC2)(C(F)(F)F)O1 [EFAVIRENZ] | > 6300 | 240 | – | 6.8 | – | – | – |
| Cc1cc(C#N)cc(C)c1Oc1cc(Cl)nc(Nc2ccc(C#N)cc2)c1 | 57700 | > 57700 | 773 | 1070 | > 3 | 54 | < 1 |
| COc1cc(Oc2c(C)cc(C#N)cc2C)cc(NC2CCN(Cc3ccc(S(N)(=O)=O)cc3)CC2)n1 | 10000 | 6800 | 132 | 7.8 | > 48 | 1280 | 1 |
| Cc1cc(C#N)cc(C)c1Oc1cc(Cl)nc(NC2CCN(Cc3ccc(S(C)(=O)=O)cc3)CC2)c1 | 1500 | > 1500 | 80 | 9.1 | > 48 | 168 | < 1 |
| Cc1cc(C#N)cc(C)c1Oc1cc(Cl)nc(NC2CCN(Cc3ccc(C(N)=O)cc3)CC2)c1 | 9800 | ≥ 9700 | 90 | 10 | > 51 | 1010 | ≤ 1 |
